Calls of active or inactive are those of the source. No rule for the calls is given here.
Tested on: Trypanosoma brucei growth inhibition, luminescence
Test: antitrypanosomal activity against T. brucei – luminescence (AID 1159562);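 also: parasites grew with compound for 24 h before the luminescence read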

Row | SMILES | IC50
1 | CNc1cncc(C2CCCN2C(=O)Cc2coc3cc(C)ccc23)n1 (stereo not given) | > 40000 nM (inactive)
2 | Cc1cc2cc(CNc3ccc4c(c3)OCO4)c(=O)n(CCO)c2cc1C | > 40000 nM (inactive)
3 | CNc1cc(Cn2c(C(=O)c3cc(C)cc(Cl)c3)c(C(C)C)c(=O)[nH]c2=O)ccn1 | 25000 nM
4 | Fc1ccccc1N1C[C@H]2CCN(c3cccnc3)C[C@H]2C1 | > 40000 nM (inactive)
5 | O=C(COc1ncnc2cc([N+](=O)[O-])ccc12)NC(=O)NC1CCCCC1 | > 40000 nM (inactive)
6 | CC(C(=O)Nc1ccccc1F)N(C)CC(=O)Nc1cccc2ccccc12 (stereo not given) | > 40000 nM (inactive)
7 | O=C(CCCn1cnc([N+](=O)[O-])n1)Nc1cccc(Cl)c1 | > 40000 nM (inactive)
8 | Cc1cn[nH]c1C1CCCN(Cc2nc3ccccc3n2C)C1 (stereo not given) | 7900 nM
9 | CNc1cc(C)nc(C2CN(C(=O)c3n[nH]c4ccccc34)CCO2)c1 (stereo not given) | > 40000 nM (inactive)
10 | Cc1nn(-c2nc3ccccc3s2)c2c1C(c1ccc(OCC(N)=O)cc1)SCC(=O)N2 (stereo not given) | 32 nM
11 | COc1cccc(CCNC(=O)C(c2cn[nH]c2)N2CCN(c3ccc(Cl)cc3)CC2)c1 (stereo not given) | 32000 nM
12 | CCCN(Cc1ccc(OC)c(OC)c1)Cc1cc(=O)c2c(C)cc(C)cc2[nH]1 | > 40000 nM (inactive)
13 | COc1cccc(-c2c(C)nn(-c3nc(N)nc(-c4ccccn4)n3)c2N)c1 | > 40000 nM (inactive)
14 | O=C(CN(Cc1ccccn1)Cc1ccccn1)NCc1ccc(-c2csnn2)cc1 | 7900 nM
15 | COc1ccc(NS(=O)(=O)c2cc(NC(=O)Cc3ccc(C)cc3)ccc2N2CCOCC2)cc1 | 7900 nM
16 | CC(Cn1ccnc1)NC(=O)COc1ccc(Cl)c(Cl)c1 (stereo not given) | > 40000 nM (inactive)
17 | O=C(c1ccc(OCCCc2cnc[nH]2)cc1)C1CC1 | > 40000 nM (inactive)
18 | c1ccc(CNc2cccc3ccncc23)cc1 | > 40000 nM (inactive)
19 | CNc1c(C(N)=O)c(-c2ccc3scnc3c2)nn1CC(F)(F)F | > 40000 nM (inactive)
20 | COCCn1c(-c2ccc3c(c2)OCO3)cnc1NCc1ccccc1OC | 25000 nM
21 | Cc1cc2ncn(-c3ccc([N+](=O)[O-])cc3C#N)c2cc1C | > 40000 nM (inactive)
22 | Cc1ccc(C)c(-n2nnnc2Sc2nc([N+](=O)[O-])nn2C)c1 | 16000 nM
23 | CC1CN(S(=O)(=O)c2ccc(NC(=O)c3cc(C4CC4)nc4c3cnn4C(C)C)cc2)CC(C)O1 (stereo not given) | 6300 nM
24 | N#Cc1ccc(S(=O)(=O)N2CCN(Cc3cccc(-c4ccncc4)c3)CC2)cc1 | 20000 nM
25 | CC(C)(C)C(Cn1ccnc1)NC(=O)c1ccc2nc(C3CC3)oc2c1 (stereo not given) | > 40000 nM (inactive)
26 | O=C(Cn1cnc2cc([N+](=O)[O-])ccc2c1=O)NCCc1ccc(Cl)cc1Cl | > 40000 nM (inactive)
27 | O=C(NC1C(=O)N(c2ccccc2)C1c1cccnc1)c1ccc(Cl)s1 (stereo not given) | > 40000 nM (inactive)
28 | CC(=O)Nc1nc(-c2cc(C)ccc2C)c(C)s1 | > 40000 nM (inactive)
29 | Cc1nc2nc(C)c(Cc3ccc(C(C)C)cc3)c(=O)n2[nH]1 | > 40000 nM (inactive)
30 | COc1ccc(C(=O)[C@H]2C[C@@H]2CN(Cc2ccccn2)Cc2ccccn2)cc1 | 16000 nM

Second part, the compound after the results:

Row | IC50 | SMILES
31 | 500 nM | Cn1ccnc1CN1CCc2[nH]cnc2C1c1ccccc1OCc1ccccc1 (stereo not given)
32 | 6300 nM | Cn1c(CC(=O)NNC(=O)c2ccc3ccccc3n2)nc2ccccc21
33 | 79 nM | CS(=O)(=O)NC1CCC(Nc2ncc(Br)c(Nc3ccccc3C(N)=O)n2)CC1 (stereo not given)
34 | 2000 nM | CC(=O)Nc1ccc(-c2cnc(N)c(-c3nc4ccc(F)cc4[nH]3)c2)cc1
35 | 500 nM | CCC(CC)C(=O)Nc1ccc(-c2nnc(-c3ccc(OC)cc3)o2)cc1
36 | 1000 nM | O=[N+]([O-])c1ccc(-c2nnn(-c3ccc(Cl)cc3)n2)o1
37 | 630 nM | CN(CC1CCCO1)S(=O)(=O)c1ccc(C(=O)Nc2nc(-c3ccccn3)cs2)cc1 (stereo not given)
38 | 500 nM | Cc1cccc(Nc2nc(-c3ccccn3)cs2)n1
39 | 400 nM | CCN(CC)c1ncc(C(=O)c2ccc([N+](=O)[O-])o2)s1
40 | 250 nM | CCCCCNC(=O)c1c[nH]c2ccc(S(=O)(=O)N(C)c3ccc(OCC)cc3)cc2c1=O
41 | 5000 nM | CC(CCc1ccccc1)NC(=O)CN(Cc1ccccn1)Cc1ccccn1 (stereo not given)
42 | 100 nM | CNS(=O)(=O)c1ccccc1Nc1nc(Nc2cc(C)nn2C)ncc1Cl
43 | 1300 nM | O=C(NCC1CCCCC1)c1cc(=O)c2ccccc2o1
44 | 200 nM | CC(C)(C)C(=O)Nc1cc(C2CC2)nn1-c1nc2c(c(=O)[nH]1)CCCC2
45 | 5000 nM | CCN(CC)c1nc(Nc2ccncc2)nc2ccccc12
46 | 630 nM | COc1ccc(-c2csc(NC(=O)c3ccc([N+](=O)[O-])s3)n2)cc1OC
47 | 320 nM | COc1ccc2ncc(F)c(CCN3CC[C@@H](NC(=O)c4cc5c(s4)CCC5)[C@@H](O)C3)c2n1
48 | 790 nM | C[C@@H](Oc1cc(-n2cnc3ccc(O[C@H]4CCNC4)cc32)sc1C(N)=O)c1ccccc1Cl
49 | 630 nM | O=C(Nc1nc(-c2ccccn2)cs1)N1C[C@H]2C[C@@]2(c2ccccc2)C1
50 | 1600 nM | CC(C)(C)c1csc(NC(=O)c2ccc([N+](=O)[O-])s2)n1
51 | 790 nM | COc1ccc(NC(=O)c2ccc(NC(=O)CN(c3ccccc3C)S(C)(=O)=O)cc2)cc1
52 | 6300 nM | Cn1nc(C(=O)N2CCc3ccccc32)c2c1CCS(=O)(=O)C2
53 | 500 nM | Cc1occc1C(=O)Nc1ccccc1C(=O)Nc1nccs1

Row | IC50 | SMILES
54 | 1000 nM | CNC(=O)C1Cc2ccccc2N1C(=O)Cc1ccccc1 (stereo not given)
55 | 500 nM | CCc1ccccc1[C@@H](C)NC(=O)c1cnc2c(cnn2CC)c1NC1CCN(C(N)=O)CC1
56 | 130 nM | COc1ccc(NS(=O)(=O)c2cc(NC(=O)c3ccc([N+](=O)[O-])s3)ccc2OC)cc1
57 | 790 nM | O=C(CC1(O)C(=O)N(Cc2cccs2)c2ccc(Br)cc21)c1cccnc1 (stereo not given)
58 | 5000 nM | Cc1ccc(Nc2nc(N)nc(CNC(c3nc4ccccc4[nH]3)C(C)C)n2)cc1 (stereo not given)
59 | 790 nM | C[C@@H](Oc1cc(-n2cnc3ccc(C(O)CO)cc32)sc1C(N)=O)c1ccccc1C(F)(F)F (stereo not given in full)
60 | 200 nM | O=C(NCCc1csc(-c2ccc(F)cc2)n1)c1cccs1
61 | 790 nM | COc1ccc(C2CC(c3ccccc3Cl)=NN2C(=O)CNC(=O)C2CCCC2)cc1 (stereo not given)
62 | 1000 nM | CNC(=O)C1Cc2ccccc2N1C(=O)COc1cccc(OC)c1 (stereo not given)
63 | 500 nM | O=C(Nc1nccs1)c1ccccc1Cn1cc([N+](=O)[O-])cn1
64 | 400 nM | CCC(=O)Nc1ccccc1C(=O)Nc1ccccn1
65 | 790 nM | O=C(NC1CCN(C2Cc3ccc(NS(=O)(=O)c4cc(F)cc(F)c4)cc3C2)CC1)C1CC1 (stereo not given)
66 | 790 nM | O=c1cc(NCCCNCc2c[nH]c3ccc(Br)cc23)[nH]c2ccccc12
67 | 630 nM | Cc1ccccc1NS(=O)(=O)c1ccc2[nH]cc(C(=O)NC3CCCC3)c(=O)c2c1
68 | 630 nM | OC[C@@H](Nc1nccc(-c2c(-c3ccc(F)cc3)ncn2C2CCNCC2)n1)c1ccccc1
69 | 790 nM | COc1cnc2ccc(=O)n(CCN3CCC(NC/C=C/c4cc(F)ccc4F)CC3)c2c1
70 | 250 nM | Cc1cc(Nc2ccc(C#N)c(Cl)c2C)n[nH]1
71 | 630 nM | O=C(NCc1ccc(Cl)cc1)C1CN(C(=O)c2ccc(F)cc2)CCS1 (stereo not given)
72 | 160 nM | Nc1cc(-c2ccc3ncnc(N4CCOCC4)c3c2)cnc1N
73 | 100 nM | CNS(=O)(=O)c1ccccc1Nc1nc(Nc2ccnn2C)ncc1Cl
74 | 500 nM | Cc1[nH]nc(-c2nc3ccccc3[nH]2)c1C(=O)NC1CCCNC1 (stereo not given)
75 | 13 nM | Cc1sc(C)c(C(F)(F)F)c1CNCCCNc1cc(=O)c2ccccc2[nH]1

Source: PubChem BioAssay AID1159562 (GlaxoSmithKline (GSK), 2015)
